Source: article PMC5601738, “Facile total synthesis of lysicamine and the anticancer activities of the Ru^II, Rh^III, Mn^II and Zn^II complexes of lysicamine” (Oncotarget, 2017)
Several values for one entry are separate records, joined by “and”; a condition that tells them apart may be missing. Identical values can stand only once. Like-named read-outs stand apart in the source and are kept apart here.

Key:
BEL-7404 = assay: MTT assay, BEL-7404 cells; format: cell-based, human; settings: 48 h; for IC50: MTT, mean ± SD from five independent experiments
NCI-H460 = assay: MTT assay, NCI-H460 cells; format: cell-based, human; settings: 48 h; for IC50: MTT, mean ± SD from five independent experiments
T-24 = assay: MTT assay, T-24 cells; format: cell-based, human; settings: 48 h; for IC50: MTT, mean ± SD from five independent experiments
[1] = system: HL-7702 normal liver cell; assay: MTT assay, HL-7702 normal liver cell; format: cell-based; settings: 48 h; for IC50: MTT, mean ± SD from five independent experiments
HepG2 xenograft = HepG2 xenograft model
HepG2 = assay: MTT assay, HepG2 cells; settings: for IC50: read-out: IC50 HepG2
HepG2 cells = assay: Cell cycle analysis by flow cytometry; format: cell-based, human; settings: HepG2, 24 h
ct-DNA = assay: CD absorption spectrometry assay with ct-DNA; format: binding; settings: ct-DNA 1×10^−4 M, [DNA]/[compound] 10:0.5 to 10:2.0
pBR322 plasmid DNA = assay: Agarose gel electrophoresis assay with pBR322 plasmid DNA; format: biochemical; settings: pBR322 0.5 μg/μL, TBE buffer pH=8.5, 10 to 100 μM
Experimental: The DNA cleavage activity of 2, 3 and LY were tested by agarose gel electrophoresis assay using pBR322 plasmid DNA (0.5 μg/μL) in TBE buffer (pH=8.5). […] In contrast, under the same experimental conditions, when the concentration of 2 increased from 10 μM to 50 μM, the mobility of supercoiled DNA (form I) was reduced, but the relaxed form (form II) was not observed. When the concentration of 2 increased further to 70 μM, the form II DNA appeared. Almost all supercoiled DNA (form I) changed to relaxed DNA (form II) when the concentration of 2 reached 90 and 100 μM.
RT-qPCR was performed. The threshold cycle (Ct) values approval no. SCXK 2014-0002 and SYXK 2014-0003), […]
were housed at a sterile environment with conditions of […]
than 3 days before used. Complexes and LYwere all […]
is limited in 1% in final working solutions. KM mice. The large concentration of 2 in 10% (v/v) […]
ct-DNA CD spectrum as control.
The HepG2 xenograft mice were induced by
37 °C in the dark for 4 h.
The percent weight loss or gain was calculated […]
imaging system under a UV-Vis transilluminator.. Percent tumour growth inhibition after initiation of treatment with 2 and cisplatin were calculated by TGI= […]
initial for control group).
Animals were supplied by Guangxi Medical
University Laboratory Animal Centre (Guangxi, China, […]

[2] = metal salts 1× 10-4 mol/L, 48 h

N.N.[Cl][Pt][Cl] [Cisplatin, cisplatin, reference compound]
inhibitive ratio BEL-7404 (BEL-7404; 20 μmol/L): 55.15±1.18%
IC50 (BEL-7404): 12.4 ± 0.38 µM
inhibitive ratio NCI-H460 (NCI-H460; 20 μmol/L): 53.88±1.29%
IC50 (NCI-H460): 18.3 ± 1.02 µM
inhibitive ratio T-24 (T-24; 20 μmol/L): 47.58±2.05%
IC50 (T-24): 28.1 ± 1.88 µM
inhibitive ratio HL-7702 ([1]; 20 μmol/L, normal liver cell): 68.95±1.42% and 68.9%
IC50 ([1]; normal liver cell): 15.7 ± 1.27 µM
BW% (body weight change) (HepG2 xenograft; 2.0 mg/kg per 2 days): -25.8%
loss in body weight (HepG2 xenograft; 2.0 mg/kg per 2 days): 25.8%
TGI (HepG2 xenograft; 2.0 mg/kg per 2 days i.p.): 83.16%
inhibitive ratio Hep-G2 (HepG2; 20 μmol/L, 48 h): 60.63±0.99%
IC50 (HepG2; MTT, 48 h, mean ± SD from five independent experiments): 18.5 ± 0.78 µM

COc1cc2ccnc3c2c(c1OC)-c1ccccc1C3=O [LY, lysicamine]
inhibitive ratio BEL-7404 (BEL-7404; 20 μmol/L): 32.27±1.73%
IC50 (BEL-7404; Homo sapiens, BEL-7404): 47.5 ± 1.65 µM
inhibitive ratio NCI-H460 (NCI-H460; 20 μmol/L): 52.85±0.32%
IC50 (NCI-H460; Homo sapiens, NCI-H460): 19.14 ± 0.18 µM
inhibitive ratio T-24 (T-24; 20 μmol/L): 42.40±2.14%
IC50 (T-24; Homo sapiens, T-24): 34.5 ± 1.96 µM
inhibitive ratio HL-7702 ([1]; 20 μmol/L, normal liver cell): 45.49±0.78% and 45.5%
IC50 ([1]; Homo sapiens, L02, normal liver cell): 29.3 ± 0.72 µM
effect on cell cycle progression (HepG2 cells): only blocked the cell cycle in the G1 phase
change of CD spectrum of ct-DNA / binding (ct-DNA): the binding was weak
DNA cleavage activity on supercoiled pBR322 DNA (pBR322 plasmid DNA): did not change the supercoiled DNA and its migration rate
inhibitive ratio Hep-G2 (HepG2; 20 μmol/L, 48 h): 53.13±1.19%
IC50 (HepG2; Homo sapiens, HepG2, 48 h): 23.9 ± 0.41 µM

O.O.O.O.O.O.[Mn+2].[O-][Cl+3]([O-])([O-])[O-].[O-][Cl+3]([O-])([O-])[O-] [Mn(ClO4)2·6H2O, reference compound]
inhibitive ratio BEL-7404 (BEL-7404; metal salts 1× 10-4 mol/L): 25.84±1.36%
inhibitive ratio NCI-H460 (NCI-H460; metal salts 1× 10-4 mol/L): 30.12±0.46%
inhibitive ratio T-24 (T-24; metal salts 1× 10-4 mol/L): 24.08±1.86%
inhibitive ratio HL-7702 ([1]; metal salts 1× 10-4 mol/L): 23.06±1.64%
inhibitive ratio Hep-G2 (HepG2; [2]): 18.52±0.67%

O.O.O.[Cl][Rh]([Cl])[Cl] [RhCl3·3H2O, reference compound]
inhibitive ratio BEL-7404 (BEL-7404; metal salts 1× 10-4 mol/L): 35.29±0.97%
inhibitive ratio NCI-H460 (NCI-H460; metal salts 1× 10-4 mol/L): 25.41±1.25%
inhibitive ratio T-24 (T-24; metal salts 1× 10-4 mol/L): 27.09±1.11%
inhibitive ratio HL-7702 ([1]; metal salts 1× 10-4 mol/L): 30.12±1.57%
inhibitive ratio Hep-G2 (HepG2; [2]): 24.02±1.02%
